Laboratory results: patent US9464058B2 (Hoffmann-La Roche Inc., priority 2012, dated 2016)

Legend:
human CYP11B1 = target: T1, human CYP11B1 (Homo sapiens, UniProt P15538); test: G-402 cellular enzyme assay, human CYP11B1 (cortisol release, HTRF); format: cell-based; conditions: G-402 cells expressing human CYP11B1; 1 μM Deoxycortisol; 16 h
T1 construct: expressed in transfected cells
T1 sequence (P15538 25-503): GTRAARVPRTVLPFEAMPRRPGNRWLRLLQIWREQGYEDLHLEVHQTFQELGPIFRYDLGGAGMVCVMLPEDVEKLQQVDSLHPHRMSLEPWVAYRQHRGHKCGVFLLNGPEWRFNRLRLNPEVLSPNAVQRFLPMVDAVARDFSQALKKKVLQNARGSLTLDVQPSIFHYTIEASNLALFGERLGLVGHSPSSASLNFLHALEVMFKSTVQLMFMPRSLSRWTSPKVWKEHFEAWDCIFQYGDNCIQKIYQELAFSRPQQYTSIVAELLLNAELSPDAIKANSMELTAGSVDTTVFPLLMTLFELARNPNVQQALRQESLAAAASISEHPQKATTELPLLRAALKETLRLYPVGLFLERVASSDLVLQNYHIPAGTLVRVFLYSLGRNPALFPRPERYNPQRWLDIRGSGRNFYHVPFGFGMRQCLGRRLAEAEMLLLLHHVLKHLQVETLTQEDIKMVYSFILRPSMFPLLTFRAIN
Excerpt: (§1) Herein we identified the use of the G-402 cell line as a host cell to ectopically express (transiently or stably) enzymes of the CYP11 family. Specifically we developed stable G-402 cells expressing ectopically human CYP11B1, human CYP11B2, human CYP11A1, cynomolgus CYP11B1 or cynomolgus CYP11B2 enzyme activity. Importantly, the identified cell line G-402 expresses co-factors (adrenodoxin and adrenodoxin reductase) important for the activity of the CYP11 family, and no relevant enzyme activity of the CYP11 family (in comparison to H295R cells) was detected in these cells. Therefore the G-402 cell line is uniquely suited as a host cell for the ectopic expression of enzymes from the CYP11 family.
(§2) G-402 cells can be obtained from ATCC(CRL-1440) and were originally derived from a renal leiomyoblastoma.
(§3) The expression plasmids contains the ORF for either human/cyno CYP11B1 or CYP11B2 under the control of a suitable promoter (CMV-promoter) and a suitable resistance marker (neomycin). Using standard techniques the expression plasmid is transfected into G-402 cells and these cells are then selected for expressing the given resistance markers. Individual cell-clones are then selected and assessed for displaying the desired enzymatic activity using 11-Deoxycorticosterone (Cyp11B2) or 11-Deoxycortisol (Cyp11B1) as a substrate.
(§4) G-402 cells expressing CYP11 constructs were established as described above and maintained in McCoy's 5a Medium Modified, ATCC Catalog No. 30-2007 containing 10% FCS and 400 μg/ml G418 (Geneticin) at 37° C. under an atmosphere of 5% CO2/95% air. Cellular enzyme assays were performed in DMEM/F12 medium containing 2.5% charcoal treated FCS and appropriate concentration of substrate (0.3-10 uM 11-Deoxycorticosterone, 11-Deoxycortisol or Corticosterone). For assaying enzymatic activity, cells were plated onto 96 well plates and incubated for 16 h. An aliquot of the supernatant is then transferred and analyzed for the concentration of the expected product (Aldosterone for CYP11B2; Cortisol for CYP11B1). The concentrations of these steroids can be determined using HTRF assays from CisBio analyzing either Aldosterone or Cortisol.
(§5) Inhibition of the release of produced steroids can be used as a measure of the respective enzyme inhibition by test compounds added during the cellular enzyme assay. The dose dependent inhibition of enzymatic activity by a compound is calculated by means of plotting added inhibitor concentrations (x-axes) vs. measured steroid/product level (y-axes). The inhibition is then calculated by fitting the following 4-parameter sigmoidal function (Morgan-Mercer-Flodin (MMF) model) to the raw data points using the least squares method:
(§6) [formula] wherein A is the maximum y value, B is the EC50 factor determined using XLFit, C is the minimum y value and D is the slope value.
(§7) EC50 values for compounds claimed herein were tested with the G402-based assay system described. Cyp11B2 enzyme activity was tested in presence of 1 μM Deoxycorticosterone and variable amounts of inhibitors; Cyp11B1 enzyme activity was tested in presence of 1 μM Deoxycortisol and variable amounts of inhibitors.

human CYP11B2 = target: T2, human CYP11B2 (Homo sapiens, UniProt P19099); test: G-402 cellular enzyme assay, human CYP11B2 (aldosterone release, HTRF); format: cell-based; conditions: G-402 cells expressing human CYP11B2; 1 μM Deoxycorticosterone; 16 h
T2 construct: expressed in transfected cells
T2 sequence (P19099 25-503): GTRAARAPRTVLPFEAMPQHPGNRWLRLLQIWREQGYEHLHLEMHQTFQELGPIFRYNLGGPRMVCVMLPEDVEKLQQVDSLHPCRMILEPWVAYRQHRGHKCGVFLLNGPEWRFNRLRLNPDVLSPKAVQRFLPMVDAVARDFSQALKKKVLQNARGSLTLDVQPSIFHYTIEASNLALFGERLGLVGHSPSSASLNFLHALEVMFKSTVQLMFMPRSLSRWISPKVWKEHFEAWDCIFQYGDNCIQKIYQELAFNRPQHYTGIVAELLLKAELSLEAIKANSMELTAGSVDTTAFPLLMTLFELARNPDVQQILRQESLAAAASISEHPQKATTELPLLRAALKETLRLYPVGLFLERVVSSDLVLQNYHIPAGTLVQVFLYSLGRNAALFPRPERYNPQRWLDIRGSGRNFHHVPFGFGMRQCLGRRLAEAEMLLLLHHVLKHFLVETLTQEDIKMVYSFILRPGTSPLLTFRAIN
Excerpt: as §1, §2, §3, §4, §5, §6, §7

Structure (SMILES)	EC50 (human CYP11B1)	EC50 (human CYP11B2)
Cn1cncc1C(=O)c1cccc(F)c1 [Example 24, (3-Fluoro-phenyl)-(3-methyl-3H-imidazol-4-yl)-methanone]	673 nM	65.2 nM
CC(C)n1cncc1C(=O)c1ccc(SC(F)(F)F)cc1 [Example 75, (3-Isopropyl-3H-imidazol-4-yl)-(4-trifluoromethylsulfanyl-phenyl)-methanone]	760 nM	89.9 nM
CCSc1ccc(C(=O)c2cncn2C(C)C)cc1 [Example 71, (4-Ethylsulfanyl-phenyl)-(3-isopropyl-3H-imidazol-4-yl)-methanone]	253 nM	5.3 nM
CC(C)n1cncc1C(=O)c1ccc(N(C)C=O)cc1 [Example 93, N-[4-(3-Isopropyl-3H-imidazole-4-carbonyl)-phenyl]-N-methyl-formamide]	349 nM	11.7 nM
CN(C=O)c1ccc(C(=O)c2cncn2C)cc1 [Example 87, N-Methyl-N-[4-(3-methyl-3H-imidazole-4-carbonyl)-phenyl]-formamide]	30400 nM	186 nM
CCn1cncc1C(=O)c1ccc(C(C)(C)C)cc1 [Example 35, (4-tert-Butyl-phenyl)-(3-ethyl-3H-imidazol-4-yl)-methanone]	1690 nM	3670 nM
CCn1cncc1C(=O)c1ccc(N(C)C(C)=O)cc1 [Example 67, N-[4-(3-Ethyl-3H-imidazole-4-carbonyl)-phenyl]-N-methyl-acetamide]	9910 nM	291 nM
CC(C)n1cncc1C(=O)c1ccc2c(c1)CCC(=O)N2C [Example 27, 6-(3-Isopropyl-3H-imidazole-4-carbonyl)-1-methyl-3,4-dihydro-1H-quinolin-2-one]	153 nM	6.9 nM
COc1cc(C(=O)c2cncn2C2CC2)ccc1SC [Example 62, (3-Cyclopropyl-3H-imidazol-4-yl)-(3-methoxy-4-methylsulfanyl-phenyl)-methanone]	46.1 nM	2.8 nM
Cn1cncc1C(=O)c1ccc(S(C)(=O)=O)cc1 [Example 47, (4-Methanesulfonyl-phenyl)-(3-methyl-3H-imidazol-4-yl)-methanone]	–	3530 nM
Cn1cncc1C(=O)c1ccc(C(F)(F)F)cc1 [Example 31, (3-Methyl-3H-imidazol-4-yl)-(4-trifluoromethyl-phenyl)-methanone]	7840 nM	197 nM
CCC(C)n1cncc1C(=O)c1cccc(Cl)c1 (stereo not drawn) [Example 28, (3-sec-Butyl-3H-imidazol-4-yl)-(3-chloro-phenyl)-methanone]	22.7 nM	14.1 nM
CC(=O)N(C)c1ccc(C(=O)c2cncn2C)cc1 [Example 55, N-Methyl-N-[4-(3-methyl-3H-imidazole-4-carbonyl)-phenyl]-acetamide]	–	923 nM
Cn1cncc1C(=O)c1ccc(SC(F)(F)F)cc1 [Example 73, (3-Methyl-3H-imidazol-4-yl)-(4-trifluoromethylsulfanyl-phenyl)-methanone]	–	390 nM
CN(C(=O)OC(C)(C)C)c1ccc(C(=O)c2cncn2C)cc1 [Example 85, Methyl-[4-(3-methyl-3H-imidazole-4-carbonyl)-phenyl]-carbamic acid tert-butyl ester]	12500 nM	–
Cn1cncc1C(=O)c1ccc(C(C)(C)C)cc1 [Example 30, (4-tert-Butyl-phenyl)-(3-methyl-3H-imidazol-4-yl)-methanone]	9880 nM	–

Now from value to compound:

EC50 (human CYP11B1)	EC50 (human CYP11B2)	Structure (SMILES)
74.6 nM	3.4 nM	O=C(c1ccc(F)c(F)c1)c1cncn1-c1ccc(Cl)cc1 [Example 97, [3-(4-Chloro-phenyl)-3H-imidazol-4-yl]-(3,4-difluoro-phenyl)-methanone]
8710 nM	583 nM	Cn1cncc1C(=O)c1cccc(C#N)c1 [Example 21, 3-(3-Methyl-3H-imidazole-4-carbonyl)-benzonitrile]
5.3 nM	1.3 nM	CC(C)n1cncc1C(=O)c1cccc(Cl)c1 [Example 12, (3-Chloro-phenyl)-(3-isopropyl-3H-imidazol-4-yl)-methanone]
1750 nM	58.7 nM	CCn1cncc1C(=O)c1ccc(C(F)(F)F)cc1 [Example 36, (3-Ethyl-3H-imidazol-4-yl)-(4-trifluoromethyl-phenyl)-methanone]
187 nM	7.7 nM	Cn1cncc1C(=O)c1ccc(Cl)c(F)c1 [Example 9, (4-Chloro-3-fluoro-phenyl)-(3-methyl-3H-imidazol-4-yl)-methanone]
71.8 nM	2.2 nM	N#Cc1ccc(-n2cncc2C(=O)c2ccc(Cl)cc2)cc1 [Example 95, 4-[5-(4-Chloro-benzoyl)-imidazol-1-yl]-benzonitrile]
33 nM	2.7 nM	CCn1cncc1C(=O)c1ccc(Cl)c(F)c1 [Example 34, (4-Chloro-3-fluoro-phenyl)-(3-ethyl-3H-imidazol-4-yl)-methanone]
5.6 nM	2.1 nM	CC(C)n1cncc1C(=O)c1ccc(Cl)cc1 [Example 13, (4-Chloro-phenyl)-(3-isopropyl-3H-imidazol-4-yl)-methanone]
4.5 nM	0.8 nM	CC(C)n1cncc1C(=O)c1ccc(C#N)cc1 [Example 6, 4-(3-Isopropyl-3H-imidazole-4-carbonyl)-benzonitrile]
199 nM	5.6 nM	N#Cc1ccc(-n2cncc2C(=O)c2ccc(Cl)c(Cl)c2)cc1 [Example 96, 4-[5-(3,4-Dichloro-benzoyl)-imidazol-1-yl]-benzonitrile]
25.4 nM	2.3 nM	CCn1cncc1C(=O)c1ccc(C#N)c(Cl)c1 [Example 46, 2-Chloro-4-(3-ethyl-3H-imidazole-4-carbonyl)-benzonitrile]
46.8 nM	2.6 nM	CCn1cncc1C(=O)c1ccc(C#N)cc1 [Example 5, 4-(3-Ethyl-3H-imidazole-4-carbonyl)-benzonitrile]
3.3 nM	0.2 nM	CCC(CC)n1cncc1C(=O)c1ccc(C#N)cc1 [Example 82, 4-[3-(1-Ethyl-propyl)-3H-imidazole-4-carbonyl]-benzonitrile]
21 nM	3.5 nM	O=C(c1ccc(F)c(Cl)c1)c1cncn1C1CC1 [Example 41, (3-Chloro-4-fluoro-phenyl)-(3-cyclopropyl-3H-imidazol-4-yl)-methanone]
145 nM	3.7 nM	N#Cc1ccc(-n2cncc2C(=O)c2ccc(Cl)c(Cl)c2)cc1Cl [Example 78, 2-Chloro-4-[5-(3,4-dichloro-benzoyl)-imidazol-1-yl]-benzonitrile]
